Measurements from patent publication US20130072383A1, “METHOD FOR ANTI-SPROUTING AND POSSIBLY FUNGICIDAL TREATMENT OF BULBS AND/OR TUBERS USING CLOVE OIL AND MINT OIL” (priority 2010, published 2013).

System: Bintje, Nicola and Charlotte potatoes
Experiment: Sprout-inhibiting treatment of stored potatoes over 6 months, sprout weights (Example 1)
Type: in vivo
Conditions: used alone
Procedure: The sprout-inhibiting treatments were carried out over a 6-month period.
The mint oil used contained about 70% L-carvone and the clove oil used contained about 90% eugenol.
The tested potatoes were Bintje, Nicola and Charlotte varieties.
An anti-sprouting composition A consisting of a mixture of clove oil (supplied by Charabot (Grasse)/ mint oil (supplied by Charabot (Grasse) at 2:1 v/v was prepared. The densities of mint and clove are respectively 0.94 and 1.04. This composition was applied to the potatoes using Electrofog Xeda 3000 equipment at an output temperature of 210° C., • at an initial dose of 90 grams of composition per tonne of potatoes, • at subsequent doses of 30 grams of composition per tonne of potatoes every three weeks.
For comparison, some potatoes were treated: • B: either with mint oil alone
at an initial dose of 90 grams of mint oil per tonne of potatoes,
at subsequent doses of 30 grams of mint oil per tonne of potatoes every three weeks; • C: or with clove oil alone
at an initial dose of 90 grams of clove oil per tonne of potatoes,
at subsequent doses of 30 grams of clove oil per tonne of potatoes every three weeks; • D: or with CIPC (Xedamate Aerosol 88 containing 20% CIPC) by thermal fogging:
at an initial dose of 60 grams of Xedamate Aerosol 88 per tonne of potatoes, […]

L-carvone
Anti-sprouting activity relative to reference product CIPC: comparable with the reference product (CIPC)
